Test results taken from ChEMBL document CHEMBL1201861, “Genomics of Drug Sensitity in Cancer screening data, Wellcome Trust Sanger Institute”.
pIC50: −log10 of the molar value.

How the values were obtained:
Experiment in all cases: cells
ASPC1 = format: functional, cell-based, Homo sapiens; settings: Homo sapiens, ASPC1;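 also: growth inhibition of AsPC-1 cells, read out with a cell viability assay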
Description: SANGER: Inhibition of human AsPC-1 cell growth in a cell viability assay.

TE-12 = format: functional, cell-based; settings: Homo sapiens;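 also: growth inhibition of TE-12 cells, read out by a cell viability assay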
Description: SANGER: Inhibition of human TE-12 cell growth in a cell viability assay.

NCI-H1623 = format: functional, cell-based, Homo sapiens; settings: Homo sapiens, NCI-H1623;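 also: cell viability assay used as the read-out for growth inhibition of NCI-H1623 cells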
Description: SANGER: Inhibition of human NCI-H1623 cell growth in a cell viability assay.

KALS-1 = format: functional, cell-based, Homo sapiens; settings: Homo sapiens, KALS-1;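 also: growth inhibition of KALS-1 cells, determined with a cell viability assay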
Description: SANGER: Inhibition of human KALS-1 cell growth in a cell viability assay.

NCI-H2126 = format: functional, cell-based, Homo sapiens; settings: Homo sapiens, NCI-H2126;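 also: growth inhibition of the cancer cell line, determined with a cell viability readout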
Description: SANGER: Inhibition of human NCI-H2126 cell growth in a cell viability assay.

Ca-Ski = format: functional, cell-based; settings: Homo sapiens;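 also: cell viability assay measuring inhibition of Ca-Ski cell growth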
Description: SANGER: Inhibition of human Ca-Ski cell growth in a cell viability assay.

DB = format: functional, cell-based; settings: Homo sapiens
Description: SANGER: Inhibition of human DB cell growth in a cell viability assay.

NCI-H747 = format: functional, cell-based; settings: Homo sapiens;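 also: growth inhibition of human NCI-H747 cells, read out by a cell viability assay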
Description: SANGER: Inhibition of human NCI-H747 cell growth in a cell viability assay.

TYK-nu = format: functional, cell-based, Homo sapiens; settings: Homo sapiens, TYK-nu;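 also: growth inhibition of human TYK-nu cells, read out by a cell viability assay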
Description: SANGER: Inhibition of human TYK-nu cell growth in a cell viability assay.

FTC-133 = format: functional, cell-based, Homo sapiens; settings: Homo sapiens, FTC-133
A204 = format: functional, cell-based, Homo sapiens; settings: Homo sapiens, A204;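 also: growth inhibition of human A204 cells, read out with a cell viability assay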
Description: SANGER: Inhibition of human A204 cell growth in a cell viability assay.

D-392MG = format: functional, cell-based, Homo sapiens; settings: Homo sapiens, D-392MG
NCI-H2030 = format: functional, cell-based, Homo sapiens; settings: Homo sapiens, NCI-H2030;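 also: growth inhibition of human NCI-H2030 cells, read out by a cell viability assay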
Description: SANGER: Inhibition of human NCI-H2030 cell growth in a cell viability assay.

TGBC24TKB = format: functional, cell-based, Homo sapiens; settings: Homo sapiens, TGBC24TKB;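 also: growth inhibition of human TGBC24TKB cells, read out with a cell viability assay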
Description: SANGER: Inhibition of human TGBC24TKB cell growth in a cell viability assay.

K5 = format: functional, cell-based, Homo sapiens; settings: Homo sapiens, K5
Description: SANGER: Inhibition of human K5 cell growth in a cell viability assay.

Detroit 562 = format: functional, cell-based, Homo sapiens; settings: Homo sapiens, Detroit 562;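 also: growth inhibition of human Detroit 562 cells, read out by a cell viability assay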
Description: SANGER: Inhibition of human Detroit562 cell growth in a cell viability assay.

TGBC1TKB = format: functional, cell-based, Homo sapiens; settings: Homo sapiens, TGBC1TKB;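 also: growth inhibition of TGBC1TKB cells, read out by a cell viability assay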
Description: SANGER: Inhibition of human TGBC1TKB cell growth in a cell viability assay.

LB2241-RCC = format: functional, cell-based, Homo sapiens; settings: Homo sapiens, LB2241-RCC;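 also: cell viability assay measuring how strongly the cultured human renal carcinoma line is prevented from growing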
Description: SANGER: Inhibition of human LB2241-RCC cell growth in a cell viability assay.

SCC-25 = format: functional, cell-based, Homo sapiens; settings: Homo sapiens, SCC-25;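 also: growth inhibition of SCC-25 cells, measured with a cell viability assay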
Description: SANGER: Inhibition of human SCC-25 cell growth in a cell viability assay.

ES4 = format: functional, cell-based, Homo sapiens; settings: Homo sapiens, ES4;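 also: growth inhibition of human ES4 cells, read out by a cell viability assay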
Description: SANGER: Inhibition of human ES4 cell growth in a cell viability assay.

SK-MEL-28 = format: functional, cell-based; settings: Homo sapiens;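 also: growth inhibition of human SK-MEL-28 cells, read out with a cell viability assay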
Description: SANGER: Inhibition of human SK-MEL-28 cell growth in a cell viability assay.

M059J = format: functional, cell-based, Homo sapiens; settings: Homo sapiens, M059J;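 also: growth inhibition of M059J cells, read out with a cell viability assay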
Description: SANGER: Inhibition of human M059J cell growth in a cell viability assay.

HTC-C3 = format: functional, cell-based, Homo sapiens; settings: Homo sapiens, HTC-C3;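 also: inhibition of cell growth, read out with a cell viability assay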
Description: SANGER: Inhibition of human HTC-C3 cell growth in a cell viability assay.

IA-LM = format: functional, cell-based, Homo sapiens; settings: Homo sapiens, IA-LM;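 also: cell viability assay measuring growth inhibition of human IA-LM cells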
Description: SANGER: Inhibition of human IA-LM cell growth in a cell viability assay.

KYSE-510 = format: functional, cell-based, Homo sapiens; settings: Homo sapiens, KYSE-510;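 also: cell viability readout used to measure how strongly growth of the cell line is suppressed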
Description: SANGER: Inhibition of human KYSE-510 cell growth in a cell viability assay.

A4-Fuk = format: functional, cell-based; settings: Homo sapiens;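 also: growth inhibition of A4-Fuk cells, read out by a cell viability assay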
Description: SANGER: Inhibition of human A4-Fuk cell growth in a cell viability assay.

MHH-ES-1 = format: functional, cell-based, Homo sapiens; settings: Homo sapiens, MHH-ES-1;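 also: cell growth inhibition measured by a cell viability assay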
Description: SANGER: Inhibition of human MHH-ES-1 cell growth in a cell viability assay.

HCC1419 = format: functional, cell-based, Homo sapiens; settings: Homo sapiens, HCC1419;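 also: growth inhibition of human HCC1419 cells, read out as cell viability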
Description: SANGER: Inhibition of human HCC1419 cell growth in a cell viability assay.

CAL-51 = format: functional, cell-based, Homo sapiens; settings: Homo sapiens, CAL-51;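 also: human CAL-51 cell line, growth inhibition read out via a cell viability assay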
Description: SANGER: Inhibition of human CAL-51 cell growth in a cell viability assay.

SCH = format: functional, cell-based, Homo sapiens; settings: Homo sapiens, SCH;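 also: growth inhibition of human SCH cells, read out in a cell viability assay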
Description: SANGER: Inhibition of human SCH cell growth in a cell viability assay.

KYSE-450 = format: functional, cell-based; settings: Homo sapiens;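 also: cell growth inhibition measured by a viability assay in human KYSE-450 cells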
Description: SANGER: Inhibition of human KYSE-450 cell growth in a cell viability assay.

Lu-65 = format: functional, cell-based; settings: Homo sapiens;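 also: growth inhibition of Lu-65 cancer cells, read out by a cell viability assay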
Description: SANGER: Inhibition of human LU-65 cell growth in a cell viability assay.

PFSK-1 = format: functional, cell-based, Homo sapiens; settings: Homo sapiens, PFSK-1;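 also: cell viability assay measuring how strongly compounds suppress growth of human PFSK-1 cells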
Description: SANGER: Inhibition of human PFSK-1 cell growth in a cell viability assay.

SNU-387 = format: functional, cell-based, Homo sapiens; settings: Homo sapiens, SNU-387
Description: SANGER: Inhibition of human SNU-387 cell growth in a cell viability assay.

GCT = format: functional, cell-based, Homo sapiens; settings: Homo sapiens, GCT;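 also: GCT cell line proliferation inhibition, read out with a cell viability assay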
Description: SANGER: Inhibition of human GCT cell growth in a cell viability assay.

DoTc2-4510 = format: functional, cell-based, Homo sapiens; settings: Homo sapiens, DoTc2-4510
SW982 = format: functional, cell-based; settings: Homo sapiens;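 also: growth inhibition of SW982 cells, read out with a cell viability assay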
Description: SANGER: Inhibition of human SW982 cell growth in a cell viability assay.

KYSE-270 = format: functional, cell-based, Homo sapiens; settings: Homo sapiens, KYSE-270;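 also: cell growth inhibition measured with a viability assay in the human KYSE-270 line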
Description: SANGER: Inhibition of human KYSE-270 cell growth in a cell viability assay.

CAL-12T = format: functional, cell-based, Homo sapiens; settings: Homo sapiens, CAL-12T;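 also: growth inhibition of human CAL-12T cells, read out with a cell viability assay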
Description: SANGER: Inhibition of human CAL-12T cell growth in a cell viability assay.

LU-139 = format: functional, cell-based; settings: Homo sapiens
Description: SANGER: Inhibition of human LU-139 cell growth in a cell viability assay.

RT-112 = format: functional, cell-based, Homo sapiens; settings: Homo sapiens, RT-112
Description: SANGER: Inhibition of human RT-112 cell growth in a cell viability assay.

HT = format: functional, cell-based; settings: Homo sapiens
Description: SANGER: Inhibition of human HT cell growth in a cell viability assay.

LXF-289 cell line = format: functional, cell-based, Homo sapiens; settings: Homo sapiens, LXF-289
Description: SANGER: Inhibition of human LXF-289 cell growth in a cell viability assay.

PANC-08-13 = format: functional, cell-based, Homo sapiens; settings: Homo sapiens, PANC-08-13;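 also: cell growth inhibition, measured with a cell viability assay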
Description: SANGER: Inhibition of human PANC-08-13 cell growth in a cell viability assay.

MKN-1 = format: functional, cell-based, Homo sapiens; settings: Homo sapiens, MKN-1;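 also: growth inhibition of human MKN1 cells, read out by a cell viability measurement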
Description: SANGER: Inhibition of human MKN1 cell growth in a cell viability assay.

SW13 = format: functional, cell-based, Homo sapiens; settings: Homo sapiens, SW13;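 also: IC50 is inhibition of SW13 cell growth, read out with a cell viability assay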
Description: SANGER: Inhibition of human SW13 cell growth in a cell viability assay.

ATN-1 = format: functional, cell-based; settings: Homo sapiens;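 also: growth inhibition of human ATN-1 cells, read out with a cell viability assay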
Description: SANGER: Inhibition of human ATN-1 cell growth in a cell viability assay.

MFE-280 = format: functional, cell-based, Homo sapiens; settings: Homo sapiens, MFE-280;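 also: growth inhibition of MFE-280 cells, determined with a cell viability readout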
Description: SANGER: Inhibition of human MFE-280 cell growth in a cell viability assay.

NCI-H526 = format: functional, cell-based; settings: Homo sapiens;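 also: growth inhibition of the human NCI-H526 cell line, measured by a cell viability assay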
Description: SANGER: Inhibition of human NCI-H526 cell growth in a cell viability assay.

LNCaP-Clone-FGC = format: functional, cell-based, Homo sapiens; settings: Homo sapiens, LNCaP-Clone-FGC
Description: SANGER: Inhibition of human LNCaP-Clone-FGC cell growth in a cell viability assay.

CCOc1nc(NC(=O)Cc2cc(OC)ccc2OC)cc(N)c1C#N
pIC50 (ASPC1): < 5.00
pIC50 (TE-12): < 5.00
pIC50 (NCI-H1623): < 5.00
pIC50 (KALS-1): < 5.00
pIC50 (NCI-H2126): < 5.00
pIC50 (Ca-Ski): < 5.00
pIC50 (DB): < 5.00
pIC50 (NCI-H747): < 5.00
pIC50 (TYK-nu): < 5.00
pIC50 (FTC-133): < 5.00
pIC50 (A204): < 5.00
pIC50 (D-392MG): < 5.00
pIC50 (NCI-H2030): < 5.00
pIC50 (TGBC24TKB): < 5.00
pIC50 (K5): < 5.00
pIC50 (Detroit 562): < 5.00
pIC50 (TGBC1TKB): < 5.00
pIC50 (LB2241-RCC): 5.18
pIC50 (SCC-25): < 5.00
pIC50 (ES4): < 5.00
pIC50 (SK-MEL-28): < 5.00
pIC50 (M059J): < 5.00
pIC50 (HTC-C3): < 5.00
pIC50 (IA-LM): < 5.00
pIC50 (KYSE-510): < 5.00
pIC50 (A4-Fuk): < 5.00
pIC50 (MHH-ES-1): < 5.00
pIC50 (HCC1419): < 5.00
pIC50 (CAL-51): < 5.00
pIC50 (SCH): < 5.00
pIC50 (KYSE-450): < 5.00
pIC50 (Lu-65): < 5.00
pIC50 (PFSK-1): < 5.00
pIC50 (SNU-387): < 5.00
pIC50 (GCT): < 5.00
pIC50 (DoTc2-4510): < 5.00
pIC50 (SW982): < 5.00
pIC50 (KYSE-270): < 5.00
pIC50 (CAL-12T): < 5.00
pIC50 (LU-139): < 5.00
pIC50 (RT-112): < 5.00
pIC50 (HT): < 5.00
pIC50 (LXF-289 cell line): < 5.00
pIC50 (PANC-08-13): < 5.00
pIC50 (MKN-1): < 5.00
pIC50 (SW13): < 5.00
pIC50 (ATN-1): < 5.00
pIC50 (MFE-280): < 5.00
pIC50 (NCI-H526): < 5.00
pIC50 (LNCaP-Clone-FGC): < 5.00

O=C1N=C(NCc2cccs2)S/C1=C\c1ccc2ncccc2c1
pIC50 (ASPC1): < 5.30
pIC50 (TE-12): < 5.30
pIC50 (NCI-H1623): < 5.30
pIC50 (KALS-1): < 5.30
pIC50 (NCI-H2126): < 5.30
pIC50 (Ca-Ski): < 5.30
pIC50 (DB): < 5.30
pIC50 (NCI-H747): < 5.30
pIC50 (TYK-nu): < 5.30
pIC50 (FTC-133): < 5.30
pIC50 (A204): < 5.30
pIC50 (D-392MG): < 5.30
pIC50 (NCI-H2030): < 5.30
pIC50 (TGBC24TKB): < 5.30
pIC50 (K5): < 5.30
pIC50 (Detroit 562): < 5.30
pIC50 (TGBC1TKB): < 5.30
pIC50 (LB2241-RCC): < 5.30
pIC50 (SCC-25): < 5.30
pIC50 (ES4): < 5.30
pIC50 (SK-MEL-28): < 5.30
pIC50 (M059J): < 5.30
pIC50 (HTC-C3): < 5.30
pIC50 (IA-LM): < 5.30
pIC50 (KYSE-510): < 5.30
pIC50 (A4-Fuk): 5.69
pIC50 (MHH-ES-1): < 5.30
pIC50 (HCC1419): < 5.30
pIC50 (CAL-51): < 5.30
pIC50 (SCH): < 5.30
pIC50 (KYSE-450): < 5.30
pIC50 (Lu-65): < 5.30
pIC50 (PFSK-1): < 5.30
pIC50 (SNU-387): < 5.30
pIC50 (GCT): < 5.30
pIC50 (DoTc2-4510): < 5.30
pIC50 (SW982): < 5.30
pIC50 (KYSE-270): < 5.30
pIC50 (CAL-12T): < 5.30
pIC50 (LU-139): < 5.30
pIC50 (RT-112): < 5.30
pIC50 (HT): < 5.30
pIC50 (LXF-289 cell line): 5.37
pIC50 (PANC-08-13): < 5.30
pIC50 (MKN-1): < 5.30
pIC50 (SW13): < 5.30
pIC50 (ATN-1): < 5.30
pIC50 (MFE-280): < 5.30
pIC50 (NCI-H526): < 5.30
pIC50 (LNCaP-Clone-FGC): < 5.30
